Assay results taken from US4436751A, “Nitrobenzyl monates antibacterial compounds” (Beecham Group Limited, priority 1980, dated 1984).
Converted amounts (≈) assume the structure as drawn. Like-named read-outs stand apart in the source and are kept apart here.

Columns and labels:
Type in all cases: cell-based
M. suipneumoniae HR(2) = assay: Anti-mycoplasmal MIC in vitro, Friis broth agarose (Table 1); conditions: Mesomycoplasma hyopneumoniae, 144 h
[1] = test system: M. suipneumoniae J2206/183b; assay: as above; conditions: Mesomycoplasma hyopneumoniae, J2206/183B, 144 h
M. suipneumoniae MS 16 = assay: as above; conditions: Mesomycoplasma hyopneumoniae, MS16, 144 h
M. suipneumoniae LABER = assay: as above; conditions: Mesomycoplasma hyopneumoniae, 144 h
[2] = test system: M. suipneumoniae NCTC 10110; assay: as above; conditions: Mesomycoplasma hyopneumoniae, NCTC10110, 144 h
M. hyorhinis ATCC 23234 = assay: as above; conditions: Mesomycoplasma hyorhinis, ATCC23234, 144 h
M. hyorhinis ATCC 25021 = assay: as above; conditions: Mesomycoplasma hyorhinis, ATCC25021, 144 h
M. gallisepticum S6 = assay: as above; conditions: Mycoplasmoides gallisepticum
Bord. bronchiseptica BO8 = assay: Veterinary bacteria MIC, Diagnostic Sensitivity Test Agar (Table 2); conditions: Bordetella bronchiseptica
Experimental: (§1) The values were determined using a two fold serial dilutions in Diagnostic Sensitivity Test Agar with an inoculum of 10^4 organisms and incubation for 18 hours at 37° C.

Bord. bronchiseptica BO9 = assay: as above; conditions: Bordetella bronchiseptica
Experimental: as §1

[3] = test system: Corynebacterium pyogenes CY1; assay: as above; conditions: Trueperella pyogenes
Experimental: as §1

E. Coli E1 = assay: as above; conditions: Escherichia coli
Experimental: as §1

Past. haemolytica PA5 = assay: as above; conditions: Mannheimia haemolytica
Experimental: as §1

Past. multocida PA1 = assay: as above; conditions: Pasteurella multocida
Experimental: as §1

Past. multocida PA2 = assay: as above; conditions: Pasteurella multocida
Experimental: as §1

S. dublin S7 = assay: as above; conditions: Salmonella enterica
Experimental: as §1

S. typhimurium S18 = assay: as above; conditions: Salmonella enterica
Experimental: as §1

Staph. aureus 152 = assay: as above
Experimental: as §1

Staph. aureus Oxford = assay: as above; conditions: Staphylococcus aureus
Experimental: as §1

Strep. agalactiae SPA1 = assay: as above; conditions: Streptococcus agalactiae
Experimental: as §1

Strep. dylgalactiae SPD1 = assay: as above
Experimental: as §1

[4] = test system: Strep. suis (group D) SPS11; assay: as above; conditions: Streptococcus suis
Experimental: as §1

Strep. uberis SPO1 = assay: as above; conditions: Streptococcus uberis
Experimental: as §1

E. coli ESS = assay: Human bacteria MIC, nutrient agar with chocolated horse blood (Table 3); conditions: Escherichia coli
Experimental: (§2) The values were determined by serial dilutions in nutrient agar with 5% chocolated horse blood after incubations for 18 hours at 37° C.

[5] = test system: Neisseria catarrhalis 1502; assay: as above
Experimental: as §2

Strep. 2733-B = assay: as above
Experimental: as §2

Strep. 641848-C = assay: as above
Experimental: as §2

Strep. pneumoniae CN33 = assay: as above; conditions: Streptococcus pneumoniae
Experimental: as §2

Question: Which MIC (M. suipneumoniae HR(2); M. suipneumoniae HR(2), in vitro, 6 days 37° C., read-out: MIC) does the source give for `C/C(=C\C(=O)OC(C)c1ccc([N+](=O)[O-])cc1)CC1OCC(CC2OC2C(C)C(C)O)C(O)C1O` (centres unmarked) [Example 4, 1-(p-nitrophenyl)ethyl monate A] here?
Answer: 2.5 µg/mL (≈ 5.07 µM)

Question: What about the MIC [1] of the same compound?
Answer: 1 µg/mL (≈ 2.03 µM)

Question: And the MIC (M. suipneumoniae MS 16)?
Answer: 1 µg/mL (≈ 2.03 µM)

Question: What about the MIC (M. suipneumoniae LABER) of the same compound?
Answer: 1 µg/mL (≈ 2.03 µM)

Question: What about the MIC ([2]; M. suipneumoniae NCTC 10110, in vitro, 6 days 37° C., read-out: MIC) of the same compound?
Answer: 2.5 µg/mL (≈ 5.07 µM)

Question: What about the MIC (M. hyorhinis ATCC 23234) of the same compound?
Answer: 0.5 µg/mL (≈ 1.01 µM)

Question: What about the MIC (M. hyorhinis ATCC 25021) of the same compound?
Answer: 0.5 µg/mL (≈ 1.01 µM)

Question: What about the MIC (M. gallisepticum S6; 144 h, M. gallisepticum S6, in vitro, 6 days 37° C., read-out: MIC) of the same compound?
Answer: > 10 µg/mL

Question: And the MIC (Bord. bronchiseptica BO8; Bord. bronchiseptica BO8, DST Agar, 10^4 organisms, 18 hours 37° C., read-out: MIC)?
Answer: > 80 µg/mL

Question: What about the MIC (Bord. bronchiseptica BO9; Bord. bronchiseptica BO9, DST Agar, 10^4 organisms, 18 hours 37° C., read-out: MIC) of the same compound?
Answer: 5 µg/mL (≈ 10.1 µM)

Question: What about the MIC ([3]; Corynebacterium pyogenes CY1, DST Agar, 10^4 organisms, 18 hours 37° C., read-out: MIC) of the same compound?
Answer: > 80 µg/mL

Question: And the MIC (E. Coli E1; E. Coli E1, DST Agar, 10^4 organisms, 18 hours 37° C., read-out: MIC)?
Answer: > 80 µg/mL

Question: And the MIC (Past. haemolytica PA5; Past. haemolytica PA5, DST Agar, 10^4 organisms, 18 hours 37° C., read-out: MIC)?
Answer: 20 µg/mL (≈ 40.5 µM)

Question: What about the MIC (Past. multocida PA1; Past. multocida PA1, DST Agar, 10^4 organisms, 18 hours 37° C., read-out: MIC) of the same compound?
Answer: 5 µg/mL (≈ 10.1 µM)

Question: What about the MIC (Past. multocida PA2; Past. multocida PA2, DST Agar, 10^4 organisms, 18 hours 37° C., read-out: MIC) of the same compound?
Answer: 2.5 µg/mL (≈ 5.07 µM)

Question: And the MIC (S. dublin S7; S. dublin S7, DST Agar, 10^4 organisms, 18 hours 37° C., read-out: MIC)?
Answer: > 80 µg/mL

Question: And the MIC (S. typhimurium S18; S. typhimurium S18, DST Agar, 10^4 organisms, 18 hours 37° C., read-out: MIC)?
Answer: > 80 µg/mL

Question: What about the MIC (Staph. aureus 152; Staphylococcus aureus, Staph. aureus 152, DST Agar, 10^4 organisms, 18 hours 37° C., read-out: MIC) of the same compound?
Answer: 1.25 µg/mL (≈ 2.53 µM)

Question: What about the MIC (Staph. aureus Oxford; Staph. aureus Oxford, DST Agar, 10^4 organisms, 18 hours 37° C., read-out: MIC) of the same compound?
Answer: 1.25 µg/mL (≈ 2.53 µM)

Question: What about the MIC (Strep. agalactiae SPA1; Strep. agalactiae SPA1, DST Agar, 10^4 organisms, 18 hours 37° C., read-out: MIC) of the same compound?
Answer: 2.5 µg/mL (≈ 5.07 µM)

Question: And the MIC (Strep. dylgalactiae SPD1; Strep. dylgalactiae SPD1, DST Agar, 10^4 organisms, 18 hours 37° C., read-out: MIC)?
Answer: 0.625 µg/mL (≈ 1.27 µM)

Question: What about the MIC ([4]; Strep. suis (group D) SPS11, DST Agar, 10^4 organisms, 18 hours 37° C., read-out: MIC) of the same compound?
Answer: 20 µg/mL (≈ 40.5 µM)

Question: And the MIC (Strep. uberis SPO1; Strep. uberis SPO1, DST Agar, 10^4 organisms, 18 hours 37° C., read-out: MIC)?
Answer: 0.312 µg/mL (≈ 0.632 µM)

Question: And the MIC (E. coli ESS; E. coli ESS, nutrient agar 5% chocolated horse blood, 18 hours 37° C., read-out: MIC)?
Answer: 2.5 µg/mL (≈ 5.07 µM)

Question: And the MIC ([5]; Neisseria catarrhalis 1502, nutrient agar 5% chocolated horse blood, 18 hours 37° C., read-out: MIC)?
Answer: 0.5 µg/mL (≈ 1.01 µM)

Question: What about the MIC (Strep. 2733-B; Strep. 2733-B, nutrient agar 5% chocolated horse blood, 18 hours 37° C., read-out: MIC) of the same compound?
Answer: 1 µg/mL (≈ 2.03 µM)

Question: And the MIC (Strep. 641848-C; Strep. 641848-C, nutrient agar 5% chocolated horse blood, 18 hours 37° C., read-out: MIC)?
Answer: 1 µg/mL (≈ 2.03 µM)

Question: What about the MIC (Strep. pneumoniae CN33; Strep. pneumoniae CN33, nutrient agar 5% chocolated horse blood, 18 hours 37° C., read-out: MIC) of the same compound?
Answer: 1 µg/mL (≈ 2.03 µM)

Question: Which results are given for `C/C(=C\C(=O)OCc1ccc([N+](=O)[O-])cc1[N+](=O)[O-])CC1OCC(CC2OC2C(C)C(C)O)C(O)C1O` (centres unmarked) [Example 10, 2,4-dinitrobenzyl monate A]?
Answer: MIC (M. suipneumoniae HR(2)): 1 µg/mL (≈ 1.91 µM); MIC [1]: 1 µg/mL (≈ 1.91 µM); MIC (M. suipneumoniae MS 16): 0.5 µg/mL (≈ 0.953 µM); MIC (M. suipneumoniae LABER): 0.5 µg/mL (≈ 0.953 µM); MIC [2]: 1 µg/mL (≈ 1.91 µM); MIC (M. hyorhinis ATCC 23234): 0.5 µg/mL (≈ 0.953 µM); MIC (M. hyorhinis ATCC 25021): 0.5 µg/mL (≈ 0.953 µM); MIC (M. gallisepticum S6; S6, 144 h): 5 µg/mL (≈ 9.53 µM); MIC (Bord. bronchiseptica BO8; BO8, 18 h): 40 µg/mL (≈ 76.3 µM); MIC (Bord. bronchiseptica BO9; BO9, 18 h): 5 µg/mL (≈ 9.53 µM); MIC ([3]; CY1, 18 h): > 80 µg/mL; MIC (E. Coli E1; 18 h): > 80 µg/mL; MIC (Past. haemolytica PA5; PA5, 18 h): 2.5 µg/mL (≈ 4.77 µM); MIC (Past. multocida PA1; PA1, 18 h): 2.5 µg/mL (≈ 4.77 µM); MIC (Past. multocida PA2; PA2, 18 h): 0.625 µg/mL (≈ 1.19 µM); MIC (S. dublin S7; S7, 18 h): > 80 µg/mL; MIC (S. typhimurium S18; TYPHIMURIUM, 18 h): > 80 µg/mL; MIC (Staph. aureus 152; Staphylococcus aureus, 152, 18 h): 0.625 µg/mL (≈ 1.19 µM); MIC (Staph. aureus Oxford; 18 h): 0.625 µg/mL (≈ 1.19 µM); MIC (Strep. agalactiae SPA1; SPA1, 18 h): 1.25 µg/mL (≈ 2.38 µM); MIC (Strep. dylgalactiae SPD1; 18 h): 0.312 µg/mL (≈ 0.595 µM); MIC ([4]; 18 h): 5 µg/mL (≈ 9.53 µM); MIC (Strep. uberis SPO1; SPO1, 18 h): 0.312 µg/mL (≈ 0.595 µM); MIC (E. coli ESS; 18 h): 2.5 µg/mL (≈ 4.77 µM); MIC ([5]; Neisseria, 1502, 18 h): 0.05 µg/mL (≈ 0.0953 µM); MIC (Strep. 2733-B; 18 h): 2.5 µg/mL (≈ 4.77 µM); MIC (Strep. 641848-C; 18 h): 2.5 µg/mL (≈ 4.77 µM); MIC (Strep. pneumoniae CN33; CN33, 18 h): 2.5 µg/mL (≈ 4.77 µM)
